Patent US12599601B2, “Antifungal composition containing carbazole compound as active ingredient” (KOREA UNIVERSITY RESEARCH AND BUSINESS FOUNDATION, priority 2019, dated 2026)
≈ marks a conversion by molar mass, not a printed value. Where “and” joins values, the source holds several entries; their conditions need not be identical. Identical values can stand only once. Like-named read-outs stand apart in the source and are kept apart here. Blank lines part the entries; values can stand above or below the compound they belong to.

Experiments:
Candida albicans = assay: Inhibition of Candida growth, CLSI M27-A2 broth microdilution (absorbance, MIC); format: cell-based; conditions: for MIC: Candida, Table 2; for absorbance of the Candida strain: 37° C., 24 hours, replicate wells
Protocol: An inhibitory effect on Candida growth was evaluated using the CLSI M27 method, which is known as a standard method for antifungal susceptibility testing. The evaluation was performed using the broth microdilution method according to the guidelines of CLSI M27-A2. As medium, 10.4 g of RPMI-MOPS, which is RPMI-1640 medium (Gibco, Gaithersburg, MD, USA) supplemented with L-glutamine, was dissolved in 900 mL of distilled water, and then 34.53 g of 0.165 M 3-N-morpholinopropanesulfonic acid MOPS) buffer was dissolved therein to reach a final volume of 1,000 mL, followed by pH adjustment to 7.0. Then, the solution was filtered through a 0.2 μm filter, thus preparing a medium.
The carbazole compound was dissolved in triple distilled water or dimethyl sulfoxide (DMSO) (Sigma) to a concentration of 20 mg/mL.
A Candida strain was incubated in yeast extract peptone dextrose (YPED) for 16 hours at 30° C., and adjusted to 1.0 turbidity (measured by a spectrophotometer at 600 nm) so that the fungal concentration was about 2.0×10^7 CFU/mL. The fungal solution was washed with triple distilled water, and then diluted again with RPMI-MOPS medium, and 100 μL of the fungal solution was dispensed into each of well Nos. 1 to 10 of a 96-well microplate (final cell concentration: 2.0×10^4 CFU/mL). In addition, 100 μL of the fungal solution was dispensed into well No. 11 (a growth control well), and only 100 μL of RPMI-MOPS medium was dispensed into well No. 12 (a medium control well). After completion of fungal inoculation, the microplate was incubated at 37° C. for 24 hours.
For evaluation of the results, data were obtained by measuring the absorbance using a microplate spectrophotometer to prevent errors by the inspector.
In the data, the concentration at which growth was inhibited based on the medium control well was determined as MIC (minimum inhibitory concentration), and the results are shown in Table 2 below and FIG. 1.

S. cerevisiae = assay: MIC test against budding yeast, same manner as Example 1-1; format: cell-based
A. fumigatus = assay: MIC test against A. fumigatus, same manner as Example 1-1; format: cell-based
HeLa cells = conditions: 16 hours treatment, MTS, tested 1 to 64 μg/ml
Protocol: The cytotoxicity of the carbazole compound to mammalian cells was evaluated using the human cervical cancer cell line HeLa.
Cells were seeded into a 96-well microplate at a density of 1.0×10^4 cells per well, and cultured in 10% FBS-containing DMEM for 24 hours at 37° C. Then, the medium was removed, each well was washed once with PBS and then treated with the synthesized compound diluted in DMEM serially from a concentration of 64 μg/ml to a concentration of 1 μg/ml. 16 hours after treatment with the compound, cytotoxicity was measured using MTS.

Candida SC5314 [1] = assay: Survival of candidiasis mouse models, compounds in drinking water; format: in vivo; conditions: Balb/C mice infected by tail vein; drinking water with molecule B 16 μg/ml or molecule C 32 μg/ml daily; monitored 2 weeks; control 0% within 9 days
Source text: (§1) For Candida infection, SC5314, a wild-type strain, was used, and 6-week-old Balb/C female mice were used. The mice were divided into two groups, each consisting of 5 mice, and the survival rate thereof was monitored.
The control group of the experiment using drinking water was provided with normal drinking water daily after Candida infection performed by tail vein injection as described in Example 3-1, and the experimental groups were provided daily with drinking water treated with molecule B at a concentration of 16 μg/ml or with drinking water treated with molecule C at a concentration of 32 μg/ml. The survival rates of the mice were monitored daily for 2 weeks.

Candida SC5314 [2] = assay: Extent of kidney infection in Candida-infected mice; format: in vivo; conditions: Candida infection by tail vein injection; treated as in Example 3-1
Protocol: as §1
5.0×10^5 Candida cells were diluted in 200 μl of PBS and mice were infected with the dilution by tail vein injection. From day 1 after infection, the control group was inoculated with 200 μl of PBS by tail vein injection, the experimental groups were weighed and treated with molecule B (diluted in 100 μl of PBS) in an amount of 8 mg/kg by tail vein injection or treated with molecule C (diluted in 100 μl of PBS) in an amount of 16 mg/kg by tail vein injection.
After Candida infection performed by tail vein injection as described in Example 3-1, the mice showing the following conditions based on humane euthanasia standards were euthanized using CO2, and the kidneys were collected therefrom and the extents of infection thereof were compared: inability to eat food or drink water; abnormal breathing; dull and stiff hair; reduced movement; or bent posture or body tremor.

[3] = Candida albicans, read-out: MIC

Structure (SMILES): Nc1ccc(CCCN2CCN(CCCCn3c4ccccc4c4cc(Br)ccc43)CC2)cc1 [Molecule B]
MIC against Candida (Candida albicans): 8 µg/mL (≈ 15.4 µM)
absorbance of the Candida strain (Candida albicans; 0.125 μg/ml compound): 0.209 and 0.229 and 0.206
absorbance of the Candida strain (Candida albicans; 0.25 μg/ml compound): 0.199 and 0.201 and 0.212
absorbance of the Candida strain (Candida albicans; 0.5 μg/ml compound): 0.198 and 0.199 and 0.218
absorbance of the Candida strain (Candida albicans; 1 μg/ml compound): 0.224 and 0.228 and 0.208
absorbance of the Candida strain (Candida albicans; 2 μg/ml compound): 0.143 (2×) and 0.152
absorbance of the Candida strain (Candida albicans; 4 μg/ml compound): 0.137 and 0.132 and 0.135
absorbance of the Candida strain (Candida albicans; 8 μg/ml compound): 0.041 (2×) and 0.034
absorbance of the Candida strain (Candida albicans; 16 μg/ml compound): 0.042 (2×) and 0.036
absorbance of the Candida strain (Candida albicans; 32 μg/ml compound): 0.047 and 0.045 and 0.04
absorbance of the Candida strain (Candida albicans; 64 μg/ml compound): 0.043 and 0.044 and 0.036
MIC (Candida albicans): 8 µg/mL (≈ 15.4 µM)
MIC against budding yeast S. cerevisiae (S. cerevisiae): 4 µg/mL (≈ 7.7 µM)
MIC against A. fumigatus (A. fumigatus): 64 µg/mL (≈ 123 µM)
concentration up to which no toxicity to mammalian cells was shown (HeLa cells): ≤ 16000 ng/mL
survival rate (Candida SC5314 [1]): 100%
extent of kidney infection compared to control mice (Candida SC5314 [2]): very low extent of kidney infection

Structure (SMILES): Nc1ccc(CCCN2CCN(CCCCn3c4ccccc4c4ccccc43)CC2)cc1 [Molecule C]
MIC against Candida (Candida albicans): 16 µg/mL (≈ 36.3 µM)
absorbance of the Candida strain (Candida albicans; 0.125 μg/ml compound): 0.168 and 0.156 and 0.17
absorbance of the Candida strain (Candida albicans; 0.25 μg/ml compound): 0.189 and 0.193 and 0.162
absorbance of the Candida strain (Candida albicans; 0.5 μg/ml compound): 0.182 and 0.25 and 0.199
absorbance of the Candida strain (Candida albicans; 1 μg/ml compound): 0.196 and 0.193 and 0.194
absorbance of the Candida strain (Candida albicans; 2 μg/ml compound): 0.19 and 0.198 and 0.188
absorbance of the Candida strain (Candida albicans; 4 μg/ml compound): 0.194 and 0.24 and 0.195
absorbance of the Candida strain (Candida albicans; 8 μg/ml compound): 0.122 and 0.136 and 0.124
absorbance of the Candida strain (Candida albicans; 16 μg/ml compound): 0.044 and 0.04 and 0.038
absorbance of the Candida strain (Candida albicans; 32 μg/ml compound): 0.043 and 0.039 (2×)
absorbance of the Candida strain (Candida albicans; 64 μg/ml compound): 0.044 and 0.04 and 0.039
MIC (Candida albicans): 16 µg/mL (≈ 36.3 µM)
MIC against budding yeast S. cerevisiae (S. cerevisiae): 4 µg/mL (≈ 9.08 µM)
MIC against A. fumigatus (A. fumigatus): 64 µg/mL (≈ 145 µM)
concentration up to which no toxicity to mammalian cells was shown (HeLa cells): ≤ 32000 ng/mL
survival rate (Candida SC5314 [1]): 80%
extent of kidney infection compared to control mice (Candida SC5314 [2]): very low extent of kidney infection

Structure (SMILES): CN(C/C=C/c1ccccc1)CCCCn1c2ccccc2c2ccccc21 [Molecule D]
MIC (Candida albicans; [3]): 16 µg/mL (≈ 43.4 µM)

Structure (SMILES): Nc1ccc(CCCN2CCN(CCCCN(c3ccccc3)c3ccccc3)CC2)cc1 [Molecule F]
MIC (Candida albicans; [3]): 32 µg/mL (≈ 72.3 µM)

Structure (SMILES): Nc1ccc(CCCN2CCN(CCCCn3c4ccccc4c4cc([N+](=O)[O-])ccc43)CC2)cc1 [Molecule G]
MIC (Candida albicans): 16 µg/mL (≈ 32.9 µM)

Structure (SMILES): Nc1ccc(CCCN2CCN(CCCCn3c4ccccc4c4cccc(Br)c43)CC2)cc1 [Molecule J]
MIC (Candida albicans): 32 µg/mL (≈ 61.6 µM)

Other lines, results leading:

MIC (Candida albicans; [3]): 32 µg/mL (≈ 73.1 µM)
Structure (SMILES): C(=C\c1ccccc1)/CN1CCN(CCCCCn2c3ccccc3c3ccccc32)CC1 [Molecule A]

MIC (Candida albicans; [3]): 32 µg/mL (≈ 72.6 µM)
Structure (SMILES): Nc1cccc(CCCN2CCN(CCCCn3c4ccccc4c4ccccc43)CC2)c1 [Molecule E]

MIC (Candida albicans; [3]): 32 µg/mL (≈ 70.4 µM)
Structure (SMILES): Nc1ccc(CCCCN2CCN(CCCCn3c4ccccc4c4ccccc43)CC2)cc1 [Molecule H]

MIC (Candida albicans; [3]): 32 µg/mL (≈ 72.8 µM)
Structure (SMILES): Nc1ccc(CCCC2CCN(CCCCn3c4ccccc4c4ccccc43)CC2)cc1 [Molecule I]
